From PubChem BioAssay AID192 (DTP/NCI, 2004)
Where “and” joins values, the source holds several entries; their conditions need not be identical. Equal values may be shown once. Inconclusive results and toxic doses are left out.

Tested on: BDF1 mice, B16 melanoma ip, median survival T/C
Test: NCI In Vivo Anticancer Drug Screen. Data for tumor model B16 Melanoma (intraperitoneal) in B6D2F1 (BDF1) mice
Details: endpoint: median survival time, higher = longer survival
Summary of the method: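 Compounds were tested in mice carrying transplantable tumors. Survival or tumor size was recorded, and each value is the treated-group measurement (T) divided by that of the vehicle-treated control group (C).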

[1] = dose: 50.0 mg/kg/injection, schedule: Q01DX009 (ip), vehicle: Klucel (hydroxypropylcellulose) (HPC)
[2] = dose: 6.25 mg/kg/injection, schedule: Q01DX009 (ip), vehicle: saline
[3] = dose: 12.5 mg/kg/injection, schedule: Q01DX009 (ip), vehicle: saline
[4] = dose: 25.0 mg/kg/injection, schedule: Q01DX009 (ip), vehicle: saline
[5] = dose: 50.0 mg/kg/injection, schedule: Q01DX009 (ip), vehicle: saline
[6] = dose: 50.0 mg/kg/injection, schedule: Q01DX009 (ip), vehicle: saline with Tween-80
[7] = dose: 100.0 mg/kg/injection, schedule: Q01DX009 (ip), vehicle: saline with Tween-80
[8] = dose: 12.5 mg/kg/injection, schedule: Q01DX009 (ip), vehicle: saline with Tween-80
[9] = dose: 25.0 mg/kg/injection, schedule: Q01DX009 (ip), vehicle: saline with Tween-80
[10] = dose: 12.5 mg/kg/injection, schedule: Q01DX009 (ip), vehicle: Klucel (hydroxypropylcellulose) (HPC)
[11] = dose: 25.0 mg/kg/injection, schedule: Q01DX009 (ip), vehicle: Klucel (hydroxypropylcellulose) (HPC)
[12] = dose: 3.13 mg/kg/injection, schedule: Q01DX009 (ip), vehicle: saline with Tween-80
[13] = dose: 6.25 mg/kg/injection, schedule: Q01DX009 (ip), vehicle: saline with Tween-80
[14] = dose: 100.0 mg/kg/injection, schedule: Q01DX009 (ip), vehicle: saline

In the case of `CCOC(=O)NO`, the T/C (dose: 75.0 mg/kg/injection, schedule: Q01DX009 (ip), vehicle: saline) was 100 % of control, the T/C (dose: 150.0 mg/kg/injection, schedule: Q01DX009 (ip), vehicle: saline) was 105 % of control and the T/C (dose: 300.0 mg/kg/injection, schedule: Q01DX009 (ip), vehicle: saline) was 103 % of control.
`C/C=C(\C)c1cc(=O)c2c(C)cc3c(c2o1)C(=O)c1c(O)c(C2CC(C)(N(C)C)C(OC(C)=O)C(C)O2)cc(C2CC(N(C)C)C(O)C(C)O2)c1C3=O` (configuration not stated) was tested, and the T/C (dose: 0.16 mg/kg/injection, schedule: Q01DX009 (ip), vehicle: saline) was 103 % of control, the T/C (dose: 0.31 mg/kg/injection, schedule: Q01DX009 (ip), vehicle: saline) was 103 % of control and the T/C (dose: 0.62 mg/kg/injection, schedule: Q01DX009 (ip), vehicle: saline) was 102 % of control. For the same molecule, the T/C (dose: 1.25 mg/kg/injection, schedule: Q01DX009 (ip), vehicle: saline) was 91 % of control and 110 % of control and the T/C (dose: 2.5 mg/kg/injection, schedule: Q01DX009 (ip), vehicle: saline) was 124 % of control.
For `O=C(O)C(Cc1cc(I)c(O)c(I)c1)c1ccccc1` (configuration not stated), the T/C [1] was 100 % of control, the T/C (dose: 100.0 mg/kg/injection, schedule: Q01DX009 (ip), vehicle: Klucel (hydroxypropylcellulose) (HPC)) was 109 % of control and the T/C (dose: 200.0 mg/kg/injection, schedule: Q01DX009 (ip), vehicle: Klucel (hydroxypropylcellulose) (HPC)) was 100 % of control.
For `CSc1nc(N)nc2c1ncn2C1OC(CO)C(O)C1O` (configuration not stated), the T/C (dose: 100.0 mg/kg/injection, schedule: Q01DX009 (ip), vehicle: suspension in saline) was 115 % of control and the T/C (dose: 200.0 mg/kg/injection, schedule: Q01DX009 (ip), vehicle: suspension in saline) was 110 % of control.
`[Cl][Pt][Cl].[NH-]C(CO)C(=O)O` (configuration not stated) was tested, and the T/C (dose: 12.5 mg/kg/injection, schedule: Q01DX009 (ip), vehicle: water) was 151 % of control.
`COc1cc2c(=O)oc3c(OC)c(O)cc4c(=O)oc(c1OC)c2c34` was tested, and the T/C (dose: 4.0 mg/kg/injection, schedule: Q01DX009 (ip), vehicle: saline with Tween-80) was 100 % of control, the T/C (dose: 8.0 mg/kg/injection, schedule: Q01DX009 (ip), vehicle: saline with Tween-80) was 94 % of control and the T/C (dose: 16.0 mg/kg/injection, schedule: Q01DX009 (ip), vehicle: saline with Tween-80) was 96 % of control. The T/C (dose: 32.0 mg/kg/injection, schedule: Q01DX009 (ip), vehicle: saline with Tween-80) was 90 % of control.
In the case of `NC1(c2ccccc2)CCCCC1`, the T/C (dose: 3.12 mg/kg/injection, schedule: Q01DX009 (ip), vehicle: saline) was 86 % of control, the T/C [2] was 100 % of control and the T/C [3] was 102 % of control. For the same molecule, the T/C [4] was 100 % of control and the T/C [5] was 100 % of control.
`Nc1nccnc1N` was tested, and the T/C [6] was 102 % of control and the T/C [7] was 88 % of control.
`CCCCCCCCCCCCCC[N+](C)(C)CC(=O)O` was tested, and the T/C [8] was 93 % of control, the T/C [9] was 91 % of control and the T/C [6] was 86 % of control.
`CCN(CC)CCCC(C)Nc1ccnc(/C=C/c2ccc(Cl)cc2)c1` (configuration not stated) was tested, and the T/C [10] was 86 % of control, the T/C (dose: 18.75 mg/kg/injection, schedule: Q04DX003 (ip), vehicle: saline) was 86 % of control and the T/C [11] was 92 % of control. The T/C (dose: 37.5 mg/kg/injection, schedule: Q04DX003 (ip), vehicle: saline) was 93 % of control and the T/C (dose: 75.0 mg/kg/injection, schedule: Q04DX003 (ip), vehicle: saline) was 89 % of control.
With `ClC(Cl)(Cl)c1nc2nccnc2[nH]1` the T/C [12] was 102 % of control, the T/C [13] was 94 % of control and the T/C [8] was 105 % of control. The T/C [9] was 91 % of control.
With `O=C1NC(C2CCC3CN32)C(=O)NC1C1CCC2CN21` (configuration not stated) the T/C (dose: 0.05 mg/kg/injection, schedule: Q01DX009 (ip), vehicle: saline) was 102 % of control, the T/C (dose: 0.1 mg/kg/injection, schedule: Q01DX009 (ip), vehicle: saline) was 107 % of control and the T/C (dose: 0.2 mg/kg/injection, schedule: Q01DX009 (ip), vehicle: saline) was 108 % of control. The T/C (dose: 0.4 mg/kg/injection, schedule: Q01DX009 (ip), vehicle: saline) was 115 % of control.
With `C/C(=C\c1ccccc1)C(=O)c1ccccc1` the T/C (dose: 100.0 mg/kg/injection, schedule: Q04DX003 (ip), vehicle: saline with Tween-80) was 100 % of control, the T/C (dose: 200.0 mg/kg/injection, schedule: Q04DX003 (ip), vehicle: saline with Tween-80) was 113 % of control and the T/C (dose: 400.0 mg/kg/injection, schedule: Q04DX003 (ip), vehicle: saline with Tween-80) was 92 % of control.
With `O=C(/C(=C\c1ccccc1)CN1CCOCC1)c1ccc(Br)cc1` the T/C [8] was 91 % of control, the T/C [9] was 94 % of control and the T/C [6] was 94 % of control. The T/C [7] was 89 % of control.
In the case of `O=C(O)c1ccc(S(=O)(=O)O)cc1C(=O)O`, the T/C [5] was 92 % of control, the T/C [14] was 96 % of control and the T/C (dose: 200.0 mg/kg/injection, schedule: Q01DX009 (ip), vehicle: saline) was 98 % of control.
For `Cc1cc(C)c(C(Cl)(Cl)Cl)c(C)c1Cl`, the T/C (dose: 1.56 mg/kg/injection, schedule: Q01DX009 (ip), vehicle: saline with Tween-80) was 93 % of control, the T/C [12] was 90 % of control and the T/C [13] was 99 % of control. For the same molecule, the T/C [8] was 103 % of control.
In the case of `CC[CH](C)[Hg][c]1cccc2ccccc12` (configuration not stated), the T/C [11] was 105 % of control and the T/C [1] was 91 % of control.
In the case of `Cc1ccc2c(c1)n([O-])c1cc(Cl)ccc1[n+]2=O`, the T/C [8] was 115 % of control and the T/C [7] was 122 % of control.
For `CS(=O)(=O)OCC1CCCCO1` (configuration not stated), the T/C (dose: 100.0 mg/kg/injection, schedule: Q04DX003 (ip), vehicle: Klucel (hydroxypropylcellulose) (HPC)) was 92 % of control and 100 % of control, the T/C (dose: 200.0 mg/kg/injection, schedule: Q04DX003 (ip), vehicle: Klucel (hydroxypropylcellulose) (HPC)) was 100 % of control and the T/C (dose: 400.0 mg/kg/injection, schedule: Q04DX003 (ip), vehicle: Klucel (hydroxypropylcellulose) (HPC)) was 104 % of control and 108 % of control.
`Cc1cc(=O)c2c(=O)[nH][nH]c2[nH]1` was tested, and the T/C [6] was 100 % of control, the T/C [7] was 95 % of control and the T/C (dose: 200.0 mg/kg/injection, schedule: Q01DX009 (ip), vehicle: saline with Tween-80) was 88 % of control.
In the case of `CCc1cnccc1C`, the T/C [11] was 100 % of control and the T/C [1] was 112 % of control.
In the case of `[Cl][Pt+2][Cl].[NH-]c1ccccc1[NH-]`, the T/C (dose: 0.63 mg/kg/injection, schedule: Q01DX009 (ip), vehicle: saline with Tween-80) was 117 % of control, the T/C (dose: 1.25 mg/kg/injection, schedule: Q01DX009 (ip), vehicle: Klucel (hydroxypropylcellulose) (HPC)) was 100 % of control and 123 % of control and the T/C (dose: 1.25 mg/kg/injection, schedule: Q01DX009 (ip), vehicle: saline with Tween-80) was 117 % of control. The T/C (dose: 2.5 mg/kg/injection, schedule: Q01DX009 (ip), vehicle: Klucel (hydroxypropylcellulose) (HPC)) was 92 % of control, the T/C (dose: 2.5 mg/kg/injection, schedule: Q01DX009 (ip), vehicle: saline with Tween-80) was 122 % of control and the T/C (dose: 10.0 mg/kg/injection, schedule: Q01DX009 (ip), vehicle: saline with Tween-80) was 92 % of control.
With `Nc1nc2c(c(=O)[nH]1)NC(CCNc1ccc(C(=O)NC(CCC(=O)O)C(=O)O)cc1)CN2` (configuration not stated) the T/C [4] was 94 % of control, the T/C [5] was 102 % of control and the T/C [14] was 110 % of control.
For `Cc1ccc(S(=O)(=O)N/N=C/C(Br)=C(/Br)C(=O)O)cc1`, the T/C [10] was 111 % of control, the T/C [11] was 113 % of control and the T/C [1] was 122 % of control.
With `C=C(C)[C@@]12O[C@@]3(/C=C/C=C/CCCCC)O[C@@H]1[C@@H]1[C@@H]4O[C@]4(COC(=O)CCCCCCCCCCCCCCC)[C@@H](O)[C@]4(O)C(=O)C(C)=CC4[C@@]1(O3)[C@H](C)[C@H]2OC(=O)c1ccccc1` (some centres not stated) the T/C (dose: 0.5 micrograms/kg/injection, schedule: Q01DX009 (ip), vehicle: saline) was 102 % of control, the T/C (dose: 1.0 micrograms/kg/injection, schedule: Q01DX009 (ip), vehicle: saline) was 106 % of control and the T/C (dose: 1.9 micrograms/kg/injection, schedule: Q01DX009 (ip), vehicle: saline) was 105 % of control. For the same molecule, the T/C (dose: 3.8 micrograms/kg/injection, schedule: Q01DX009 (ip), vehicle: saline) was 99 % of control, the T/C (dose: 7.5 micrograms/kg/injection, schedule: Q01DX009 (ip), vehicle: saline) was 102 % of control and the T/C (dose: 15.0 micrograms/kg/injection, schedule: Q01DX009 (ip), vehicle: saline) was 103 % of control. The T/C (dose: 30.0 micrograms/kg/injection, schedule: Q01DX009 (ip), vehicle: saline) was 104 % of control.
For `CCCN(C)/N=N/c1[nH]ncc1C(N)=O`, the T/C (dose: 17.0 mg/kg/injection, schedule: Q01DX009 (ip), vehicle: saline with Tween-80) was 114 % of control, the T/C (dose: 37.0 mg/kg/injection, schedule: Q01DX009 (ip), vehicle: saline with Tween-80) was 111 % of control and the T/C [6] was 121 % of control.
`CCOC(OCC)C(=O)NNC(C)C` was tested, and the T/C [2] was 105 % of control, the T/C [3] was 111 % of control and the T/C [5] was 100 % of control.
